# Measurements from PMC9466626, “Discovery of new 1H-pyrazolo[3,4-d]pyrimidine derivatives as anticancer agents targeting EGFR^WT and EGFR^T790M” (Journal of Enzyme Inhibition and Medicinal Chemistry, 2022).
# How the values were obtained:
# A549 cells = test: Annexin V-FITC apoptosis assay; type: cell-based, human
# Experimental: The effect of compound 12b on cell apoptosis was investigated as described in Supplementary data[59]. […]
# 4.1.3. Annexin V-FITC apoptosis assay.
# To detect the apoptosis induced by compound 12b, a549 cells were seeded and incubated overnight and then treated with compound 12b at concentrations of 8.21 µM µM for 48 h. DMSO was chosen as the negative control. After that, the cells were collected and washed with PBS two successive times. The cells were exposed to centrifugation. Apoptosis detection kit (BD Biosciences, San Jose, CA) was used in this test. According to the manufacturer's protocol the cells were stained by Annexin V-FITC and propidium iodide (PI) in the binding buffer for 20min at room temperature in the dark. Using a flow cytometer, Annexin V-FITC and PI binding were analyzed. flowjo software was used to analyze the frequencies in all quadrants.
# Bcl-2 = test: qRT-PCR gene expression of Bcl-2 in A549 cells; type: cell-based, human; conditions: A549, 48 h
# Experimental: The effect of compound 12b on the expression of BAX and Bcl‐2 was determined using qRT-PCR as described in Supplementary data[60–62].
# WI-38 = test: In vitro cytotoxicity against normal cells (MTT), WI-38
# Experimental: In vitro antiproliferative activities
# The in vitro antiproliferative activities of all the synthesized compounds against two human
# evaluated quantitatively as described in the literature, using MTT assay protocol . two
# proliferative activity was assessed quantitatively as follows.
# Human cancer cell lines were dropped in 96 -well plates at a density of 3-8 × 10^3 cells/well.
# Next, the wells were incubated for 12 h in a 5% CO 2 incubator at 37 °C. Then, for each well, the growth medium was exchanged with 0.1 ml of fresh medium containing graded concentrations of the test compounds to be or equal DMSO and incubated for two days. Then 10 μl MTT solution (5 μg/ml) was added to each well, and the cells were incubated for additional 4 h. The crystals of MTT-formazan were dissolved in 100 μl of DMSO; the absorbance of each well was measured at 490 nm using an automatic ELISA reader system (TECAN, CHE). The IC 50 values were calculated using the nonlinear regression fitting models (Graph Pad, Prism Version 5). The data represented the mean of three independent experiments in triplicate and were expressed as means ± SD.
# The results were expressed as growth inhibitory concentration (IC50) values and
# [1] = A549, 48 h, mean ± SEM, listed as 12 b
structure (smiles),measurement,setting,value
"CC(=NNc1nc(Nc2ccccc2)nc2c1cnn2-c1ccccc1)c1ccc(Cl)cc1 [Compound 12b, 4–(2-(1–(4-Chlorophenyl)ethylidene)hydrazinyl)-N,1-diphenyl-1H-pyrazolo[3,4-d]pyrimidin-6-amine]",Apoptosis Early (Right Bottom),"A549 cells; A549, 48 h, mean ± SEM",67.69%
same,Apoptosis Late (Right Top),"A549 cells; A549, 48 h, mean ± SEM",0.64%
same,Necrosis (Left Top),"A549 cells; A549, 48 h, mean ± SEM",0.10 ± 0.02%
same,Viable (Left Bottom),"A549 cells; A549, 48 h, mean ± SEM",31.57 ± 4.64%
same,Apoptosis Early (Right Bottom),A549 cells; [1],67.69 ± 4.86 %
same,Apoptosis Late (Right Top),A549 cells; [1],0.64 ± 0.30%
same,fold decrease in the ratio of viable cells,"A549 cells; vs untreated A549, 48 h",3 fold
same,fold increase in the early apoptosis ratio,"A549 cells; vs untreated A549, 48 h",11 fold
same,fold increase in the late apoptosis ratio,"A549 cells; vs untreated A549, 48 h",1.5 fold
same,Gene expression (Fold Change) Bcl-2,Bcl-2; control set to 1,0.40 ± 0.08 Fold Change
same,fold decrease in Bcl-2 gene expression,Bcl-2; vs untreated,2.5 fold
same,Selectivity index (SI) A549,WI-38; cytotoxicity against WI-38 / cytotoxicity against A549,4.77
same,Selectivity index (SI) HCT-116,WI-38; cytotoxicity against WI-38 / cytotoxicity against HCT-116,2.00
same,"HillSlope (best-fit value), WI-38",WI-38; supplement graph,-0.4504
same,"LogIC50 (best-fit value), WI-38",WI-38; supplement graph,1.593
